The NIST ThermoML archive (doi:10.1021/je400459y)
± gives the expanded uncertainty stated by the source.

Test: mn = molality of the nth substance listed, in mol/kg
Conditions: Liquid

In the case of [Cl-].[Na+] [sodium chloride] + O, the mass density (332.77 K, 16012 kPa, m1 = 1) is reported as 1028.34 ± 1 kg/m3, the mass density (332.83 K, 10001 kPa, m1 = 1) is reported as 1025.96 ± 1 kg/m3 and the mass density (332.88 K, 12003 kPa, m1 = 1) is reported as 1026.78 ± 1 kg/m3. The mass density (332.96 K, 18010 kPa, m1 = 1) was 1029.12 ± 1 kg/m3, the mass density (333.11 K, 14007 kPa, m1 = 1) was 1027.52 ± 1 kg/m3 and the mass density (333.13 K, 10014 kPa, m1 = 2) was 1060.45 ± 1 kg/m3. For the same molecule, the mass density (333.13 K, 12007 kPa, m1 = 3) was 1090.92 ± 1.1 kg/m3, the mass density (333.13 K, 14002 kPa, m1 = 3) was 1091.64 ± 1.1 kg/m3 and the mass density (333.16 K, 18002 kPa, m1 = 3) was 1093.07 ± 1.1 kg/m3. It also gave a mass density (333.17 K, 15999 kPa, m1 = 2) of 1062.63 ± 1 kg/m3, a mass density (333.18 K, 18011 kPa, m1 = 2) of 1063.39 ± 1 kg/m3 and a mass density (333.19 K, 10002 kPa, m1 = 3) of 1089.97 ± 1.1 kg/m3. It also gave a mass density (333.19 K, 12008 kPa, m1 = 2) of 1061.17 ± 1 kg/m3, a mass density (333.2 K, 14003 kPa, m1 = 2) of 1061.9 ± 1 kg/m3 and a mass density (333.21 K, 16006 kPa, m1 = 3) of 1092.36 ± 1.1 kg/m3. For the same molecule, the mass density (333.52 K, 15999 kPa, m1 = 4) was 1123.12 ± 1.1 kg/m3, the mass density (333.54 K, 12004 kPa, m1 = 4) was 1121.22 ± 1.1 kg/m3 and the mass density (333.55 K, 18008 kPa, m1 = 4) was 1124.3 ± 1.1 kg/m3. It also gave a mass density (333.56 K, 14008 kPa, m1 = 4) of 1122.36 ± 1.1 kg/m3, a mass density (333.59 K, 10007 kPa, m1 = 4) of 1120.38 ± 1.1 kg/m3 and a mass density (352.11 K, 10000 kPa, m1 = 4) of 1109.5 ± 1.1 kg/m3. For the same molecule, the mass density (352.14 K, 18001 kPa, m1 = 4) was 1112.67 ± 1.1 kg/m3, the mass density (352.16 K, 12008 kPa, m1 = 4) was 1109.8 ± 1.1 kg/m3 and the mass density (352.17 K, 14050 kPa, m1 = 4) was 1111.1 ± 1.1 kg/m3. It also gave a mass density (352.19 K, 16005 kPa, m1 = 4) of 1111.53 ± 1.1 kg/m3, a mass density (352.65 K, 12002 kPa, m1 = 1) of 1015.47 ± 0.99 kg/m3 and a mass density (353.13 K, 18026 kPa, m1 = 2) of 1052.55 ± 1 kg/m3. The mass density (353.14 K, 12005 kPa, m1 = 2) was 1050.19 ± 1 kg/m3, the mass density (353.16 K, 14002 kPa, m1 = 3) was 1079.82 ± 1 kg/m3 and the mass density (353.16 K, 14003 kPa, m1 = 2) was 1050.95 ± 1 kg/m3. It also gave a mass density (353.19 K, 16007 kPa, m1 = 2) of 1051.71 ± 1 kg/m3, a mass density (353.2 K, 9995 kPa, m1 = 1) of 1014.63 ± 0.99 kg/m3 and a mass density (353.2 K, 13999 kPa, m1 = 1) of 1016.06 ± 0.99 kg/m3. It also gave a mass density (353.23 K, 9996 kPa, m1 = 2) of 1049.38 ± 1 kg/m3, a mass density (353.23 K, 10007 kPa, m1 = 3) of 1078.28 ± 1 kg/m3 and a mass density (353.23 K, 16008 kPa, m1 = 3) of 1080.53 ± 1 kg/m3. For the same molecule, the mass density (353.27 K, 12003 kPa, m1 = 3) was 1079.02 ± 1 kg/m3, the mass density (353.28 K, 17998 kPa, m1 = 1) was 1017.65 ± 0.99 kg/m3 and the mass density (353.28 K, 18002 kPa, m1 = 3) was 1081.24 ± 1 kg/m3. The mass density (372.7 K, 18017 kPa, m1 = 4) was 1100.7 ± 1.1 kg/m3, the mass density (372.71 K, 14005 kPa, m1 = 4) was 1099 ± 1.1 kg/m3 and the mass density (372.72 K, 10019 kPa, m1 = 4) was 1097.2 ± 1.1 kg/m3. The mass density (372.75 K, 16043 kPa, m1 = 4) was 1100.12 ± 1.1 kg/m3, the mass density (372.76 K, 12007 kPa, m1 = 4) was 1098.5 ± 1.1 kg/m3 and the mass density (372.96 K, 16007 kPa, m1 = 1) was 1003.93 ± 0.98 kg/m3. It also gave a mass density (373 K, 18001 kPa, m1 = 1) of 1004.74 ± 0.98 kg/m3, a mass density (373.03 K, 12005 kPa, m1 = 1) of 1002.25 ± 0.98 kg/m3 and a mass density (373.03 K, 14001 kPa, m1 = 1) of 1003.21 ± 0.98 kg/m3. For the same molecule, the mass density (373.1 K, 11999 kPa, m1 = 2) was 1038.08 ± 1 kg/m3, the mass density (373.11 K, 10005 kPa, m1 = 3) was 1066.26 ± 1 kg/m3 and the mass density (373.11 K, 17997 kPa, m1 = 3) was 1069.36 ± 1 kg/m3. For the same molecule, the mass density (373.16 K, 10001 kPa, m1 = 1) was 1001.31 ± 0.98 kg/m3, the mass density (373.16 K, 14004 kPa, m1 = 3) was 1067.77 ± 1 kg/m3 and the mass density (373.17 K, 12008 kPa, m1 = 3) was 1067.01 ± 1 kg/m3. It also gave a mass density (373.2 K, 14002 kPa, m1 = 2) of 1038.84 ± 1 kg/m3, a mass density (373.22 K, 16005 kPa, m1 = 3) of 1068.52 ± 1 kg/m3 and a mass density (392.6 K, 10002 kPa, m1 = 1) of 986.9 ± 0.97 kg/m3. For the same molecule, the mass density (392.65 K, 12008 kPa, m1 = 1) was 987.5 ± 0.97 kg/m3, the mass density (392.65 K, 14005 kPa, m1 = 1) was 988.82 ± 0.97 kg/m3 and the mass density (392.65 K, 16001 kPa, m1 = 1) was 989.54 ± 0.97 kg/m3. For the same molecule, the mass density (392.65 K, 18001 kPa, m1 = 1) was 990.45 ± 0.97 kg/m3, the mass density (392.77 K, 14002 kPa, m1 = 4) was 1088.52 ± 1.1 kg/m3 and the mass density (392.78 K, 15999 kPa, m1 = 4) was 1089.3 ± 1.1 kg/m3. The mass density (392.79 K, 10006 kPa, m1 = 4) was 1086.96 ± 1.1 kg/m3, the mass density (392.81 K, 12002 kPa, m1 = 4) was 1087.71 ± 1.1 kg/m3 and the mass density (392.82 K, 18008 kPa, m1 = 4) was 1090.43 ± 1.1 kg/m3. It also gave a mass density (393.09 K, 14006 kPa, m1 = 3) of 1054.75 ± 1 kg/m3, a mass density (393.17 K, 10001 kPa, m1 = 3) of 1053.22 ± 1 kg/m3 and a mass density (393.17 K, 16002 kPa, m1 = 3) of 1055.54 ± 1 kg/m3. It also gave a mass density (393.17 K, 18005 kPa, m1 = 2) of 1027.22 ± 1 kg/m3, a mass density (393.18 K, 10003 kPa, m1 = 2) of 1023.83 ± 1 kg/m3 and a mass density (393.2 K, 11995 kPa, m1 = 2) of 1024.64 ± 1 kg/m3. For the same molecule, the mass density (393.22 K, 13999 kPa, m1 = 2) was 1025.54 ± 1 kg/m3, the mass density (393.23 K, 16003 kPa, m1 = 2) was 1026.34 ± 1 kg/m3 and the mass density (393.24 K, 12008 kPa, m1 = 3) was 1053.85 ± 1 kg/m3. The mass density (393.26 K, 17997 kPa, m1 = 3) was 1056.25 ± 1 kg/m3, the mass density (412.86 K, 10007 kPa, m1 = 4) was 1072.35 ± 1 kg/m3 and the mass density (412.92 K, 12005 kPa, m1 = 4) was 1073.15 ± 1 kg/m3. The mass density (412.94 K, 14004 kPa, m1 = 4) was 1073.97 ± 1 kg/m3, the mass density (413.01 K, 16003 kPa, m1 = 4) was 1074.76 ± 1 kg/m3 and the mass density (413.06 K, 18002 kPa, m1 = 4) was 1075.53 ± 1 kg/m3. The mass density (413.11 K, 17998 kPa, m1 = 2) was 1012.96 ± 0.99 kg/m3, the mass density (413.12 K, 14007 kPa, m1 = 2) was 1011.33 ± 0.99 kg/m3 and the mass density (413.12 K, 16004 kPa, m1 = 1) was 973.21 ± 0.96 kg/m3. For the same molecule, the mass density (413.14 K, 10008 kPa, m1 = 2) was 1009.53 ± 0.99 kg/m3, the mass density (413.14 K, 16003 kPa, m1 = 2) was 1012.21 ± 0.99 kg/m3 and the mass density (413.14 K, 18004 kPa, m1 = 3) was 1041.53 ± 1 kg/m3. For the same molecule, the mass density (413.15 K, 18001 kPa, m1 = 1) was 974.15 ± 0.96 kg/m3, the mass density (413.16 K, 10006 kPa, m1 = 1) was 970.45 ± 0.96 kg/m3 and the mass density (413.17 K, 12009 kPa, m1 = 1) was 971.23 ± 0.96 kg/m3. The mass density (413.17 K, 16001 kPa, m1 = 3) was 1040.63 ± 1 kg/m3, the mass density (413.18 K, 12003 kPa, m1 = 2) was 1010.61 ± 0.99 kg/m3 and the mass density (413.18 K, 13998 kPa, m1 = 1) was 972.24 ± 0.96 kg/m3. The mass density (413.2 K, 12005 kPa, m1 = 3) was 1038.72 ± 1 kg/m3 and the mass density (413.23 K, 10007 kPa, m1 = 3) was 1038.23 ± 1 kg/m3.
